Each structure is given as a SMILES string.

The test system of one assay is T1, IaCPR.
T1 construct: full ORF 2,133 bp, 710 aa; pET32a (vector fusion tag), E. coli Transetta (DE3), Ni-NTA
The assay is described as follows: reductase activity by absorbance, microplate reader. Type of assay: biochemical, Ilex asprella. Conditions: electron acceptor for this constant, pH and temperature not printed in main text.

The target of the next assay is T2, IaAO4 (Ilex asprella, UniProt A0A976SHZ5).
T2 construct: 513 aa ORF (1,539 bp); pESC-URA in S. cerevisiae WAT11tfAX co-expressing IaAO1
T2 sequence (A0A976SHZ5 1-512): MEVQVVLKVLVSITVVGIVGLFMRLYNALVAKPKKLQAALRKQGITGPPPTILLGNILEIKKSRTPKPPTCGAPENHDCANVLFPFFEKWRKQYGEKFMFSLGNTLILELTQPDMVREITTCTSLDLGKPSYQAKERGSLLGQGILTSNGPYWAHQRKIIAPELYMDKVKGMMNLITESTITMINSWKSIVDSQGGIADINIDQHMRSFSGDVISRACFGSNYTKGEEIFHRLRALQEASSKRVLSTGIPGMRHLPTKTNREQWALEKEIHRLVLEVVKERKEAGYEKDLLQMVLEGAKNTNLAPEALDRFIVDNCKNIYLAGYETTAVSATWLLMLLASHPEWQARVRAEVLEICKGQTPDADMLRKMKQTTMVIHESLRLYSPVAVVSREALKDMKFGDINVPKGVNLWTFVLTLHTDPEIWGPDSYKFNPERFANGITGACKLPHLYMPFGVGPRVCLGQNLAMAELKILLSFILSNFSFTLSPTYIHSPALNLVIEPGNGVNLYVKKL
Put plainly: yeast metabolite analysis by GC-MS. Conditions: S. cerevisiae WAT11tfAX co-expressing IaAO1. The assay is classed as cell-based.

The target in the next assay is T3, IaAO5 (Ilex asprella, UniProt A0A976SHZ3).
T3 construct: 515 aa ORF (1,545 bp); pESC-TRP in S. cerevisiae WAT11tfA co-expressing IaAS2
T3 sequence (A0A976SHZ3 1-514): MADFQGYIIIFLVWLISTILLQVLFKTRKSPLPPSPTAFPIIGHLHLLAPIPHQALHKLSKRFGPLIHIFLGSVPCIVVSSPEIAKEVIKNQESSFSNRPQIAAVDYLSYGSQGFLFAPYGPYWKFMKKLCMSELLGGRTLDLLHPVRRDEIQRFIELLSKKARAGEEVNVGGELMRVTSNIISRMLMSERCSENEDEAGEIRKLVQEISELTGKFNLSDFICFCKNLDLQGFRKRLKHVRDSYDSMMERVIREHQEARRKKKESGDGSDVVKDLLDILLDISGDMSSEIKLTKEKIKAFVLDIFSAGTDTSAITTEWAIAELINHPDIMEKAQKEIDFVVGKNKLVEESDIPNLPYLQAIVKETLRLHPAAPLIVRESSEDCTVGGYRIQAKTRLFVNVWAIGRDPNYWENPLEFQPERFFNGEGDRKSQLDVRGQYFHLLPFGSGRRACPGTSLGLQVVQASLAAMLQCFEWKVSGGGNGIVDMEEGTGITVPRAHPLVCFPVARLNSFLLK
The assay is described as follows: yeast metabolite analysis by GC-MS. Type of assay: cell-based. Conditions: S. cerevisiae WAT11tfA co-expressing IaAS2; C-24 oxidation to α-boswellic acid; not seen in strain WAT11tfAX.

For orientation: Km means the concentration of substrate that gives half-maximal velocity. For `NC(=O)C1=CN([C@@H]2O[C@H](COP(=O)(O)OP(=O)(O)OC[C@H]3O[C@@H](n4cnc5c(N)ncnc54)[C@H](OP(=O)(O)O)[C@@H]3O)[C@@H](O)[C@H]2O)C=CC1` [NADPH], in the assay on IaCPR, the Km stood at 7.69 µM.

Take `CC1(C)CC[C@]2(C(=O)O)CC[C@]3(C)C(=CC[C@@H]4[C@@]5(C)CC[C@H](O)C(C)(C)[C@@H]5CC[C@]43C)[C@@H]2C1` [oleanolic acid]: at IaAO4 (C-23 oxidation to hederagenin and gypsogenic acid), the “yeast metabolite analysis by GC-MS” value is “catalyzing the oxidation of both OA and UA at the C-23 position”.

Turning to `C[C@H]1[C@H](C)CC[C@]2(C(=O)O)CC[C@]3(C)C(=CC[C@@H]4[C@@]5(C)CC[C@H](O)C(C)(C)[C@@H]5CC[C@]43C)[C@H]12` [ursolic acid], the “yeast metabolite analysis by GC-MS” value at IaAO4 (C-23 oxidation, products 23-hydroxyl- and 23-carboxyl-ursolic acid tentative) was “catalyzing the oxidation of both OA and UA at the C-23 position”.

On to `CC1(C)CC[C@]2(C)CC[C@]3(C)C(=CC[C@@H]4[C@@]5(C)CC[C@H](O)C(C)(C)[C@@H]5CC[C@]43C)[C@@H]2C1` [β-amyrin], for which the “yeast metabolite analysis by GC-MS” value at IaAO5 is on record as “catalyzes oxidation at the C-24 position of β-amyrin to yield α-Boswellic acid”.
